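Method: 48-hour compound exposure of cells in 96-well plates, five concentrations, linear interpolation of endpoints. The concentration for full growth arrest is given as TGI.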
Assays:
Experiment in all cases: DTP human tumour cell line panel, 48 h
[1] = system: SF-268 CNS
[2] = system: EKVX NSCLC
[3] = system: HL-60(TB) leukemia
[4] = system: MDA-MB-435
[5] = system: LOX IMVI melanoma
[6] = system: UACC-257 melanoma
[7] = system: SK-MEL-5 melanoma
[8] = system: SF-539 CNS
[9] = system: SR leukemia
[10] = system: OVCAR-4 ovarian
[11] = system: NCI-H23 lung
[12] = system: UACC-62 melanoma
[13] = system: SK-OV-3 ovarian
[14] = system: M14 melanoma
[15] = system: MALME-3M melanoma
[16] = system: BT-549 breast
[17] = system: KM12 colon
[18] = system: MDA-N
[19] = system: A498 renal

| SMILES | TGI [1] [µM] | TGI [2] [µM] | TGI [3] [µM] | TGI [4] [µM] | TGI [5] [µM] | TGI [6] [µM] | TGI [7] [µM] | TGI [8] [µM] | TGI [9] [µM] | TGI [10] [µM] | TGI [11] [µM] | TGI [12] [µM] | TGI [13] [µM] | TGI [14] [µM] | TGI [15] [µM] | TGI [16] [µM] | TGI [17] [µM] | TGI [18] [µM] | TGI [19] [µM] |
| --- | --- | --- | --- | --- | --- | --- | --- | --- | --- | --- | --- | --- | --- | --- | --- | --- | --- | --- | --- |
| Clc1ccc(-c2c3nc(c(-c4ccc(Cl)cc4)c4ccc([nH]4)c(-c4ccc(Cl)cc4)c4nc(c(-c5ccc(Cl)cc5)c5ccc2[nH]5)C=C4)C=C3)cc1 | > 100 | > 100 | > 100 | > 100 | > 100 | > 100 | > 100 | > 100 | > 100 | > 100 | > 100 | > 100 | > 100 | > 100 | > 100 | > 100 | > 100 | – | – |
| Cc1ccc(N/N=C/C2=CC(C)(C)C(C#N)(C#N)C(O)=C2C#N)cc1 | > 100 | > 100 | 58.1 | > 100 | > 100 | > 100 | > 100 | > 100 | 91.2 | > 100 | > 100 | > 100 | > 100 | > 100 | > 100 | – | > 100 | > 100 | – |
| O=C(CC(C(=O)c1cccs1)c1ccsc1)c1ccc(Cl)cc1 (stereo unspecified) | > 100 | > 100 | > 100 | > 100 | > 100 | > 100 | > 100 | > 100 | > 100 | > 100 | > 100 | > 100 | > 100 | > 100 | > 100 | – | > 100 | > 100 | > 100 |
| Clc1ccc(C2ON=C(c3ccccc3)N2C23CC4CC(CC(C4)C2)C3)cc1Cl (stereo unspecified) | > 10 | > 10 | – | > 10 | > 10 | > 10 | > 10 | > 10 | – | > 10 | > 10 | > 10 | > 10 | > 10 | > 10 | > 10 | > 10 | > 10 | > 10 |
| O=S(Nc1ccccc1)c1ccccc1Oc1ccccc1 (stereo unspecified) | 62 | 79.1 | > 100 | > 100 | > 100 | > 100 | > 100 | 35.6 | > 100 | – | > 100 | – | – | > 100 | > 100 | – | > 100 | > 100 | – |
| Cn1c(=O)c2c(nc(N3CCOCC3)n2CCCNCC(O)c2ccc(O)c(O)c2)n(C)c1=O (stereo unspecified) | > 100 | > 100 | – | > 100 | > 100 | > 100 | > 100 | > 100 | > 100 | > 100 | > 100 | > 100 | > 100 | > 100 | > 100 | > 100 | > 100 | – | > 100 |
| COc1cc2c(NCCN(C)C)nc3c4cc5c(cc4ccc3c2cc1OC)OCO5 | 8.98 | 8.25 | 9.52 | 6.79 | – | 7.98 | 5.87 | 7.73 | – | 7.91 | 6.32 | 8.41 | 8.65 | 7.4 | 7.78 | – | 8.07 | 6.99 | 5.86 |
| Cc1nc2ccc(F)cc2c2c1CCN2c1ccccc1 | > 100 | 94.9 | 24.6 | 32.8 | 27.6 | 40.1 | 26.8 | 44 | 37 | > 100 | 52.9 | 27.4 | – | – | 40.8 | 44.2 | > 100 | – | 77.2 |
| CCOP(=O)(OCC)c1cc2cc(O)ccc2oc1=O | > 100 | > 100 | > 100 | > 100 | > 100 | > 100 | > 100 | > 100 | > 100 | > 100 | > 100 | > 100 | > 100 | > 100 | – | – | > 100 | > 100 | > 100 |
| OC1C2CCC3C2CC(C(O)(c2ccccc2)c2ccccc2)C13 (stereo unspecified) | > 100 | > 100 | – | > 100 | > 100 | 95.6 | > 100 | > 100 | 69.7 | > 100 | > 100 | > 100 | > 100 | > 100 | 71.3 | – | > 100 | > 100 | > 100 |
| O=C1CC2(CCN(CC3COc4ccccc4O3)CC2)C(=O)N1N1CCCCCC1 (stereo unspecified) | > 100 | > 100 | > 100 | > 100 | > 100 | > 100 | > 100 | > 100 | > 100 | > 100 | > 100 | > 100 | > 100 | > 100 | > 100 | > 100 | – | – | > 100 |
| Cc1ccc2c(=O)cc(-c3cc4ccccc4s3)[nH]c2n1 | > 100 | > 100 | > 100 | > 100 | > 100 | > 100 | > 100 | – | – | > 100 | > 100 | > 100 | > 100 | > 100 | > 100 | > 100 | > 100 | > 100 | – |
| Cc1nnc(N2C(=O)C(=Cc3ccc(Cl)cc3)N=C2c2ccc(Cl)cc2)nc1/C=C\c1ccc(N(C)C)cc1 | > 100 | > 100 | > 100 | > 100 | > 100 | > 100 | > 100 | – | – | > 100 | > 100 | > 100 | > 100 | > 100 | > 100 | > 100 | > 100 | > 100 | > 100 |

— PubChem BioAssay (NCI)
